Results: PMC9340768 (Journal of Medicinal Chemistry, 2022)

Target: CD137 (Homo sapiens, UniProt Q07011+Q96NY8)
Assay: HT1376/CD137 reporter coculture assay
Format: cell-based

Chain of CD137 (Q07011 24-255): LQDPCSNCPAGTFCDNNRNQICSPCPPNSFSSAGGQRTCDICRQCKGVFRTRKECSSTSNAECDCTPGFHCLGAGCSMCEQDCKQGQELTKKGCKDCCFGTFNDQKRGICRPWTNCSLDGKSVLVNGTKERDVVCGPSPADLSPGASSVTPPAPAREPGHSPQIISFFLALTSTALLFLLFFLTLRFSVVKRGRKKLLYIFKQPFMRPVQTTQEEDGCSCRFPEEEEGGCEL
Chain of CD137 (Q96NY8 32-510): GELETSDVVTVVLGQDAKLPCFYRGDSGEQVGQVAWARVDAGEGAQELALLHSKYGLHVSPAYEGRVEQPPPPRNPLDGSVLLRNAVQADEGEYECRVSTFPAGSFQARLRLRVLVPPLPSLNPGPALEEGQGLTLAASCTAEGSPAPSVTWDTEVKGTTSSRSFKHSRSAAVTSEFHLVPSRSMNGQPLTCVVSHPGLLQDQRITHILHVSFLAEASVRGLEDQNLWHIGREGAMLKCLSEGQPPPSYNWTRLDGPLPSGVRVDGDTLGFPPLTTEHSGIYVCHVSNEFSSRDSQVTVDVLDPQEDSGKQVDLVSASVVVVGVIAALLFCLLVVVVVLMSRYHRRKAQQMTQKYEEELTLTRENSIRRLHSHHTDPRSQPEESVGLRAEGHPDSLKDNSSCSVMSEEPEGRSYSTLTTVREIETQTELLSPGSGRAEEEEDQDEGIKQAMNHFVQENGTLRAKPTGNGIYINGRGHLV

SMILES	improvement of EC50 (CD137 affinity improved from BCY9399 to BCY11375) [fold]	EC50 relative to similar compounds (vs dLys4 (BCY10572) or C-terminal Dap (BCY10573) attachment)
CCCC[C@@H]1NC(=O)[C@H](Cc2ccc(O)cc2)NC(=O)[C@@H]2CCCN2C(=O)[C@H](CC(=O)O)NC(=O)[C@H](C)NC(=O)[C@H](Cc2ccccc2)NC(=O)[C@@H]2CSCCC(=O)N3CN(CN(C3)C(=O)CCSC[C@@H](C(=O)N[C@@H](CNC(=O)CCc3cn(CC(=O)N[C@H]4CSCCC(=O)N5CN6CN(C5)C(=O)CCSC[C@H](NC(=O)[C@@H](CC(=O)O)NC(=O)[C@H](Cc5cccc7ccccc57)NC(=O)[C@@H]5CCCN5C4=O)C(=O)N[C@@H](CCSC)C(=O)N[C@@H](CCCCNC(=N)N)C(=O)N[C@@H](CC(=O)O)C(=O)N[C@@H](Cc4c[nH]c5ccccc45)C(=O)N[C@@H](CO)C(=O)N[C@@H]([C@@H](C)O)C(=O)N4CCC[C@H]4C(=O)N4C[C@H](O)C[C@H]4C(=O)N[C@@H](Cc4c[nH]c5ccccc45)C(=O)N[C@H](C(N)=O)CSCCC6=O)nn3)C(N)=O)NC1=O)C(=O)CCSC[C@H](NC(C)=O)C(=O)N[C@@H](CC(C)(C)C)C(=O)N1CCC[C@H]1C(=O)N[C@@H](CCC(=O)O)C(=O)N[C@H](C)C(=O)N1CCC[C@H]1C(=O)N[C@@H](Cc1ccc(O)cc1)C(=O)N2 [BCY11375]	3.6	
CCCC[C@@H]1NC(=O)[C@H](Cc2ccc(O)cc2)NC(=O)[C@@H]2CCCN2C(=O)[C@H](CC(=O)O)NC(=O)[C@H](C)NC(=O)[C@H](Cc2ccccc2)NC(=O)[C@@H]2CSCCC(=O)N3CN(CN(C3)C(=O)CCSC[C@@H](C(=O)N[C@@H](C)C(N)=O)NC1=O)C(=O)CCSC[C@H](NC(C)=O)C(=O)N[C@@H](CC(C)(C)C)C(=O)N1CCC[C@H]1C(=O)N[C@@H](CCCCNC(=O)CCc1cn(CCOCCOCCOCCOCCOCCC(=O)N[C@H]3CSCCC(=O)N4CN5CN(C4)C(=O)CCSC[C@H](NC(=O)[C@@H](CC(=O)O)NC(=O)[C@H](Cc4cccc6ccccc46)NC(=O)[C@@H]4CCCN4C3=O)C(=O)N[C@@H](CCSC)C(=O)N[C@@H](CCCCNC(=N)N)C(=O)N[C@@H](CC(=O)O)C(=O)N[C@@H](Cc3c[nH]c4ccccc34)C(=O)N[C@@H](CO)C(=O)N[C@@H]([C@@H](C)O)C(=O)N3CCC[C@H]3C(=O)N3C[C@H](O)C[C@H]3C(=O)N[C@@H](Cc3c[nH]c4ccccc34)C(=O)N[C@H](C(N)=O)CSCCC5=O)nn1)C(=O)N[C@H](C)C(=O)N1CCC[C@H]1C(=O)N[C@@H](Cc1ccc(O)cc1)C(=O)N2 [BCY10571]		two- to threefold weaker
